Experiments:
human NaK = target: human NaK; set-up: method as in PMID 17706876; details: read-out: Ki for inhibition of activity, human NaK; cited from earlier work
T98G glioma cells = assay: MTT colorimetric in vitro growth inhibition assay; assay type: cell-based, human; details: Homo sapiens, T98G, 72 h; three days of culture; * three independent experiments, ** one experiment, six replicates; read-out: IC50 (nM) T98G
Description: (§1) The histological types and origins of the eight human cancer cell lines that were used for the MTT colorimetric assay are detailed in the legend of Table 1. Two mouse cancer cell lines were also used, the CT26.WT colon cancer cell line (ATCC code CRL-2638) and the B16F10 melanoma cell line (ATCC code CRL-6475). Both cell lines were obtained from the American Type Culture Collection (ATCC, Manassas, VA). A control cell line (human NHDF fibroblasts) was obtained from PromoCell (code c-12300; Heidelberg, Germany). The cell lines detailed in Figure 2A are a generous gift from the National Cancer Institute (NCI, Bethesda, USA) to Steven Karlish’s lab.
(§2) The cancer cells were cultured in RPMI (Lonza, Verviers, Belgium) medium supplemented with 10% heat-inactivated fetal calf serum (Lonza). All culture media were supplemented with 4 mM glutamine, 100 μg/mL gentamicin, 200 U/mL penicillin and 200 μg/mL streptomycin (Lonza). The NHDF fibroblasts were cultured in Lonza medium cc3132 KT FGM-2 BulletKit.
(§3) The overall growth level of the human cancer cell lines was determined using a colorimetric MTT (3-(4,5-dimethylthiazol-2yl)-2,5-diphenyltetrazolium bromide, Sigma, Belgium) assay as detailed previously. Briefly, this test measures the number of metabolically active (thus living) cells that are able to transform the yellow MTT into the blue formazan dye via a mitochondrial reduction involving succinate dehydrogenase. The amount of formazan obtained at the end of the experiment (measured by spectrophotometry) is directly proportional to the number of living cells. The determination of the optical density in the control compared to the treated cells therefore enables quantitative measurements of the effects of compounds on the growth of normal as well as cancer cells in vitro.
(§4) Each experimental condition was performed in six replicates.

U373 glioma cells = assay: MTT colorimetric in vitro growth inhibition assay; assay type: cell-based, human; details: Homo sapiens, U373 MG, 72 h; three days of culture; * three independent experiments, ** one experiment, six replicates; read-out: IC50 (nM) U373
Description: as §1, §2, §3, §4

[1] = test system: MCF-7 breast cancer cells; assay: MTT colorimetric in vitro growth inhibition assay; assay type: cell-based, human; details: Homo sapiens, MCF7, 72 h; three days of culture; * three independent experiments, ** one experiment, six replicates; read-out: IC50 (nM) MCF-7
Description: as §1, §2, §3, §4

HT-29 colon cancer cells [2] = assay: MTT colorimetric in vitro growth inhibition assay; assay type: cell-based, human; details: Homo sapiens, HT-29, 72 h; three days of culture; * three independent experiments, ** one experiment, six replicates; read-out: IC50 (nM) HT-29
Description: as §1, §2, §3, §4

Hs683 glioma cells = assay: MTT colorimetric in vitro growth inhibition assay; assay type: cell-based, human; details: Homo sapiens, Hs 683, 72 h; three days of culture; * three independent experiments, ** one experiment, six replicates; read-out: IC50 (nM) Hs683
Description: as §1, §2, §3, §4

[3] = test system: PC-3 prostate cancer cells; assay: MTT colorimetric in vitro growth inhibition assay; assay type: cell-based, human; details: Homo sapiens, 72 h; three days of culture; * three independent experiments, ** one experiment, six replicates; read-out: IC50 (nM) PC-3
Description: as §1, §2, §3, §4

A549 NSCLC cells = assay: MTT colorimetric in vitro growth inhibition assay; assay type: cell-based, human; details: Homo sapiens, A549, 72 h; three days of culture; * three independent experiments, ** one experiment, six replicates; read-out: IC50 (nM) A549
Description: as §1, §2, §3, §4

SKMEL-28 melanoma cells = assay: MTT colorimetric in vitro growth inhibition assay; assay type: cell-based, human; details: Homo sapiens, SK-MEL-28, 72 h; three days of culture; * three independent experiments, ** one experiment, six replicates; read-out: IC50 (nM) SKMEL-28
Description: as §1, §2, §3, §4

[4] = test system: human cancer cells (A549, U373, Hs683, T98G, MCF-7, SKMEL-28, PC-3, HT-29); assay: MTT growth inhibition, mean over the eight human cancer cell lines; assay type: cell-based; details: 72 h; mean over eight human cancer cell lines, three days of culture; read-out: IC50 (nM) Mean ± SEM
Description: as §1, §2, §3, §4

Rodent NaK = target: Rodent NaK; set-up: method as in PMID 17706876; details: read-out: Ki for inhibition of activity, rodent NaK; cited from earlier work
HT-29 colon cancer cells [5] = assay: O2 consumption rate (MitoXpress assay); assay type: cell-based, human; details: compounds at their IC50 (MTT), 24 h
Description: For enzymatic determination of lactate production, confluent tumor cells were incubated with 10 mM glucose for 24 hours. Culture medium was then filtered through centrifugation columns with a 10 KDa cutoff, and L-lactate concentrations were determined on an ISCUSflex analyzer (CMA Microdialysis AB, Solna, Sweden). O2 consumption was determined using the MitoXpress assay according to the manufacturer’s instructions (LuxCell Biosciences, Cork, Ireland). Briefly, after adding the oxygen probe to tumor cells cultured for 24 hours in 96-well microplates with or without the tested compounds, the wells were sealed with mineral oil, and respiration was evaluated using time-resolved fluorescent plate readers. Under these conditions, O2 depletion was translated into an increase in probe phosphorescence signal, and the slope of this signal was used to derive the O2 consumption rate.
Figure 6 Metabolic profiling of human HT29 colon cancer cells treated with cardiotonic steroids. A: Extracellular lactate concentrations and B: O2 consumption rates in HT29 cancer cells treated with the indicated compounds at their IC50in vitro growth inhibitory concentrations (see Table 1). The data (mean ± SEM from triplicates) are expressed in mM lactate accumulated in the extracellular medium after 24 hours and arbitrary units derived from time-resolved fluorescent signal.min^-1.

## C[C@@H]1O[C@@H](O[C@H]2C[C@@H](O)[C@]3(CO)[C@H]4[C@H](O)C[C@]5(C)[C@@H](C6=CC(=O)OC6)CC[C@]5(O)[C@@H]4CC[C@]3(O)C2)[C@H](O)[C@H](O)[C@H]1O [Ouabain]
Human NaK
  Ki: 100 nM
T98G glioma cells
  IC50: 80 ± 3 nM
U373 glioma cells
  IC50: 78 ± 1 nM
[1]
  IC50: 100 ± 17 nM
HT-29 colon cancer cells [2]
  IC50: 84 ± 8 nM
Hs683 glioma cells
  IC50: 34 ± 3 nM
[3]
  IC50: 63 ± 10 nM
A549 NSCLC cells
  IC50: 37 ± 2 nM
SKMEL-28 melanoma cells
  IC50: 83 ± 13 nM
[4]
  IC50: 70 ± 8 nM
Rodent NaK
  Ki: 100000 nM
HT-29 colon cancer cells [5]
  O2 consumption rate (cell respiration): significantly reduced

From paper PMC3722118, “Hellebrin and its aglycone form hellebrigenin display similar in vitro growth inhibitory effects in cancer cells and binding profiles to the alpha subunits of the Na^+/K^+-ATPase” (Molecular Cancer, 2013)
